We go through 16 compounds from patent US20230093099A1, “COMPOUNDS AND METHODS OF TREATING CANCERS” (CULLGEN (SHANGHAI), INC., priority 2019, published 2023).

This experiment relates to RS4;11 cells. In words: Cell viability assay (CellTiter-Glo) in RS4;11 cells. Conditions: Homo sapiens, 72 h; RS4;11 cells; cell viability, 3 days, CellTiter-Glo; read-out: IC50. In kind it is cell-based. How it is done: Specific exemplary heterobifunctional compounds were first characterized using cell viability assays. RS4;11 ALL cells were treated with bifunctional degraders for three days. The IC50 values ranged from 2 nM to over 10 uM.
MV4;11, RS4;11, Kasumi-1, HEL and other cells were treated with NVP-BSK805, TG101209 or selected degraders for 3 days at indicated concentrations following a 3-fold serial dilution.
HEL, RS4;11, MV4;11, Kasumi-1 and other cells were cultured at 37° C. with 5% CO2 in RPMI 1640 or DMEM Medium supplemented with 10% fetal bovine serum. Cells were authenticated using the short tandem repeat (STR) assays. Mycoplasma test results were negative.
Cells were seeded at a density of 5000 cells per well in 96-well assay plates and treated with test compounds following a 8-point or 12-point 3-fold serial dilution. Three days later, cell viability was determined using the CellTiter-Glo assay kit according to the manufacturer's instructions. The dose-response curves were determined and IC50 values were calculated using the GraphPad Prism software following a nonlinear regression (least squares fit) method.
(In ATP-based viability assays light output follows the ATP content of the culture.)
In general, IC50 refers to the concentration that inhibits the measured activity by half. Consider `Cc1cnc(Nc2ccc(N3CCN(C(=O)CCOCCOCCOCCNc4cccc5c4C(=O)N(C4CCC(=O)NC4=O)C5=O)CC3)cc2)nc1Nc1cccc(S(=O)(=O)NC(C)(C)C)c1` (stereo not shown) [JA-019, N-(tert-Butyl)-3-((2-((4-(4-(3-(2-(2-(2-((2-(2,6-dioxopiperidin-3-yl)-1,3-dioxoisoindolin-4-yl)amino)ethoxy)ethoxy)ethoxy)propanoyl)piperazin-1-yl)phenyl)amino)-5-methylpyrimidin-4-yl)amino)benzenesulfonamide], for which the 50% inhibitory concentration (IC50) came to 0.357 µM.

For `Cc1cnc(Nc2ccc(N3CCN(C(=O)CCOCCOCCOCCOCCNc4cccc5c4C(=O)N(C4CCC(=O)NC4=O)C5=O)CC3)cc2)nc1Nc1cccc(S(=O)(=O)NC(C)(C)C)c1` (stereo not shown) [JA-020, N-(tert-Butyl)-3-((2-((4-(4-(1-((2-(2,6-dioxopiperidin-3-yl)-1,3-dioxoisoindolin-4-yl)amino)-3,6,9,12-tetraoxapentadecan-15-oyl)piperazin-1-yl)phenyl)amino)-5-methylpyrimidin-4-yl)amino)benzenesulfonamide], the 50% inhibitory concentration (IC50) is 0.633 µM.

With `Cc1cnc(Nc2ccc(N3CCN(C(=O)CCOCCOCCOCCOCCOCCNc4cccc5c4C(=O)N(C4CCC(=O)NC4=O)C5=O)CC3)cc2)nc1Nc1cccc(S(=O)(=O)NC(C)(C)C)c1` (stereo not shown) [JA-021], the half-inhibitory concentration (IC50) was 0.94 µM. The result for `Cc1cnc(Nc2ccc(N3CCN(C(=O)CCC(=O)N[C@H](C(=O)N4C[C@H](O)C[C@H]4C(=O)NCc4ccc(-c5scnc5C)cc4)C(C)(C)C)CC3)cc2)nc1Nc1cccc(S(=O)(=O)NC(C)(C)C)c1` [JA-022, (2S,4R)-1-((S)-2-(4-(4-(4-((4-((3-(N-(tert-Butyl)sulfamoyl)phenyl)amino)-5-methylpyrimidin-2-yl)amino)phenyl)piperazin-1-yl)-4-oxobutanamido)-3,3-dimethylbutanoyl)-4-hydroxy-N-(4-(4-methylthiazol-5-yl)benzyl)pyrrolidine-2-carboxamide] reads above 10 µM. The result for `Cc1cnc(Nc2ccc(N3CCN(C(=O)CCCC(=O)N[C@H](C(=O)N4C[C@H](O)C[C@H]4C(=O)NCc4ccc(-c5scnc5C)cc4)C(C)(C)C)CC3)cc2)nc1Nc1cccc(S(=O)(=O)NC(C)(C)C)c1` [JA-023, (2S,4R)-1-((S)-2-(5-(4-(4-((4-((3-(N-(tert-Butyl)sulfamoyl)phenyl)amino)-5-methylpyrimidin-2-yl)amino)phenyl)piperazin-1-yl)-5-oxopentanamido)-3,3-dimethylbutanoyl)-4-hydroxy-N-(4-(4-methylthiazol-5-yl)benzyl)pyrrolidine-2-carboxamide] reads above 10 µM. The result for `Cc1cnc(Nc2ccc(N3CCN(C(=O)CCCCC(=O)N[C@H](C(=O)N4C[C@H](O)C[C@H]4C(=O)NCc4ccc(-c5scnc5C)cc4)C(C)(C)C)CC3)cc2)nc1Nc1cccc(S(=O)(=O)NC(C)(C)C)c1` [JA-024, (2S,4R)-1-((S)-2-(6-(4-(4-((4-((3-(N-(tert-Butyl)sulfamoyl)phenyl)amino)-5-methylpyrimidin-2-yl)amino)phenyl)piperazin-1-yl)-6-oxohexanamido)-3,3-dimethylbutanoyl)-4-hydroxy-N-(4-(4-methylthiazol-5-yl)benzyl)pyrrolidine-2-carboxamide] reads above 10 µM; that for `Cc1cnc(Nc2ccc(N3CCN(C(=O)CCCCCC(=O)N[C@H](C(=O)N4C[C@H](O)C[C@H]4C(=O)NCc4ccc(-c5scnc5C)cc4)C(C)(C)C)CC3)cc2)nc1Nc1cccc(S(=O)(=O)NC(C)(C)C)c1` [JA-025, (2S,4R)-1-((S)-2-(7-(4-(4-((4-((3-(N-(tert-Butyl)sulfamoyl)phenyl)amino)-5-methylpyrimidin-2-yl)amino)phenyl)piperazin-1-yl)-7-oxoheptanamido)-3,3-dimethylbutanoyl)-4-hydroxy-N-(4-(4-methylthiazol-5-yl)benzyl)pyrrolidine-2-carboxamide], above 10 µM. For the compound `Cc1cnc(Nc2ccc(N3CCN(C(=O)CCCCCCC(=O)N[C@H](C(=O)N4C[C@H](O)C[C@H]4C(=O)NCc4ccc(-c5scnc5C)cc4)C(C)(C)C)CC3)cc2)nc1Nc1cccc(S(=O)(=O)NC(C)(C)C)c1` [JA-026, (2S,4R)-1-((S)-2-(8-(4-(4-((4-((3-(N-(tert-Butyl)sulfamoyl)phenyl)amino)-5-methylpyrimidin-2-yl)amino)phenyl)piperazin-1-yl)-8-oxooctanamido)-3,3-dimethylbutanoyl)-4-hydroxy-N-(4-(4-methylthiazol-5-yl)benzyl)pyrrolidine-2-carboxamide], the 50% inhibitory concentration (IC50) is above 10 µM. The result for `Cc1cnc(Nc2ccc(N3CCN(C(=O)CCCCCCCC(=O)N[C@H](C(=O)N4C[C@H](O)C[C@H]4C(=O)NCc4ccc(-c5scnc5C)cc4)C(C)(C)C)CC3)cc2)nc1Nc1cccc(S(=O)(=O)NC(C)(C)C)c1` [JA-027, (2S,4R)-1-((S)-2-(9-(4-(4-((4-((3-(N-(tert-Butyl)sulfamoyl)phenyl)amino)-5-methylpyrimidin-2-yl)amino)phenyl)piperazin-1-yl)-9-oxononanamido)-3,3-dimethylbutanoyl)-4-hydroxy-N-(4-(4-methylthiazol-5-yl)benzyl)pyrrolidine-2-carboxamide] reads above 10 µM; that for `Cc1cnc(Nc2ccc(N3CCN(C(=O)CCCCCCCCC(=O)N[C@H](C(=O)N4C[C@H](O)C[C@H]4C(=O)NCc4ccc(-c5scnc5C)cc4)C(C)(C)C)CC3)cc2)nc1Nc1cccc(S(=O)(=O)NC(C)(C)C)c1` [JA-028, (2S,4R)-1-((S)-2-(10-(4-(4-((4-((3-(N-(tert-Butyl)sulfamoyl)phenyl)amino)-5-methylpyrimidin-2-yl)amino)phenyl)piperazin-1-yl)-10-oxodecanamido)-3,3-dimethylbutanoyl)-4-hydroxy-N-(4-(4-methylthiazol-5-yl)benzyl)pyrrolidine-2-carboxamide], above 10 µM; that for `Cc1cnc(Nc2ccc(N3CCN(C(=O)CCCCCCCCCC(=O)N[C@H](C(=O)N4C[C@H](O)C[C@H]4C(=O)NCc4ccc(-c5scnc5C)cc4)C(C)(C)C)CC3)cc2)nc1Nc1cccc(S(=O)(=O)NC(C)(C)C)c1` [JA-029, (2S,4R)-1-((S)-2-(11-(4-(4-((4-((3-(N-(tert-Butyl)sulfamoyl)phenyl)amino)-5-methylpyrimidin-2-yl)amino)phenyl)piperazin-1-yl)-11-oxoundecanamido)-3,3-dimethylbutanoyl)-4-hydroxy-N-(4-(4-methylthiazol-5-yl)benzyl)pyrrolidine-2-carboxamide], above 10 µM. The result for `Cc1cnc(Nc2ccc(N3CCN(C(=O)COCC(=O)N[C@H](C(=O)N4C[C@H](O)C[C@H]4C(=O)NCc4ccc(-c5scnc5C)cc4)C(C)(C)C)CC3)cc2)nc1Nc1cccc(S(=O)(=O)NC(C)(C)C)c1` [JA-030, (2S,4R)-1-((S)-2-(2-(2-(4-(4-((4-((3-(N-(tert-Butyl)sulfamoyl)phenyl)amino)-5-methylpyrimidin-2-yl)amino)phenyl)piperazin-1-yl)-2-oxoethoxy)acetamido)-3,3-dimethylbutanoyl)-4-hydroxy-N-(4-(4-methylthiazol-5-yl)benzyl)pyrrolidine-2-carboxamide] reads above 10 µM.

Consider `Cc1cnc(Nc2ccc(N3CCN(C(=O)CCOCCC(=O)N[C@H](C(=O)N4C[C@H](O)C[C@H]4C(=O)NCc4ccc(-c5scnc5C)cc4)C(C)(C)C)CC3)cc2)nc1Nc1cccc(S(=O)(=O)NC(C)(C)C)c1` [JA-031, (2S,4R)-1-((S)-2-(3-(3-(4-(4-((4-((3-(N-(tert-Butyl)sulfamoyl)phenyl)amino)-5-methylpyrimidin-2-yl)amino)phenyl)piperazin-1-yl)-3-oxopropoxy)propanamido)-3,3-dimethylbutanoyl)-4-hydroxy-N-(4-(4-methylthiazol-5-yl)benzyl)pyrrolidine-2-carboxamide], for which the IC50 is above 10 µM. The result for `Cc1cnc(Nc2ccc(N3CCN(C(=O)COCCOCC(=O)N[C@H](C(=O)N4C[C@H](O)C[C@H]4C(=O)NCc4ccc(-c5scnc5C)cc4)C(C)(C)C)CC3)cc2)nc1Nc1cccc(S(=O)(=O)NC(C)(C)C)c1` [JA-032, (2S,4R)-1-((S)-2-(2-(2-(2-(4-(4-((4-((3-(N-(tert-Butyl)sulfamoyl)phenyl)amino)-5-methylpyrimidin-2-yl)amino)phenyl)piperazin-1-yl)-2-oxoethoxy)ethoxy)acetamido)-3,3-dimethylbutanoyl)-4-hydroxy-N-(4-(4-methylthiazol-5-yl)benzyl)pyrrolidine-2-carboxamide] reads above 10 µM; that for `Cc1cnc(Nc2ccc(N3CCN(C(=O)CCOCCOCCC(=O)N[C@H](C(=O)N4C[C@H](O)C[C@H]4C(=O)NCc4ccc(-c5scnc5C)cc4)C(C)(C)C)CC3)cc2)nc1Nc1cccc(S(=O)(=O)NC(C)(C)C)c1` [JA-033, (2S,4R)-1-((S)-2-(3-(2-(3-(4-(4-((4-((3-(N-(tert-Butyl)sulfamoyl)phenyl)amino)-5-methylpyrimidin-2-yl)amino)phenyl)piperazin-1-yl)-3-oxopropoxy)ethoxy)propanamido)-3,3-dimethylbutanoyl)-4-hydroxy-N-(4-(4-methylthiazol-5-yl)benzyl)pyrrolidine-2-carboxamide], above 10 µM; that for `Cc1cnc(Nc2ccc(N3CCN(C(=O)CCOCCOCCOCCC(=O)N[C@H](C(=O)N4C[C@H](O)C[C@H]4C(=O)NCc4ccc(-c5scnc5C)cc4)C(C)(C)C)CC3)cc2)nc1Nc1cccc(S(=O)(=O)NC(C)(C)C)c1` [JA-034, (2S,4R)-1-((S)-2-(tert-Butyl)-16-(4-(4-((4-((3-(N-(tert-butyl)sulfamoyl)phenyl)amino)-5-methylpyrimidin-2-yl)amino)phenyl)piperazin-1-yl)-4,16-dioxo-7,10,13-trioxa-3-azahexadecanoyl)-4-hydroxy-N-(4-(4-methylthiazol-5-yl)benzyl)pyrrolidine-2-carboxamide], above 10 µM.
